Experiment: xn = mol fraction of the nth substance listed

OC1OC[C@@H](O)[C@H](O)[C@H]1O (stereo not given in full) + O + CCCCCCCCCC[n+]1ccn(C)c1.[Br-]
298.15 K, 101 kPa
Settings	viscosity [mPa·s]
x1 = 0.0001909, x3 = 0.001813	0.998
x1 = 0.0001999, x3 = 0.003572	1.112
x1 = 0.0002133, x3 = 0.005429	1.247
x1 = 0.0002286, x3 = 0.007128	1.391
x1 = 0.0003836, x3 = 0.001812	1.001
x1 = 0.0003893, x3 = 0.005428	1.254
x1 = 0.0003978, x3 = 0.003572	1.116
x1 = 0.000437, x3 = 0.007127	1.398
x1 = 0.0005688, x3 = 0.001812	1.005
x1 = 0.0005861, x3 = 0.003571	1.123
x1 = 0.0005867, x3 = 0.005427	1.262
x1 = 0.0006133, x3 = 0.007125	1.404
x1 = 0.0007539, x3 = 0.001812	1.012
x1 = 0.0007591, x3 = 0.00357	1.129
x1 = 0.0007841, x3 = 0.005426	1.269
x1 = 0.0008175, x3 = 0.007124	1.409
x1 = 0.0009408, x3 = 0.001811	1.018
x1 = 0.0009549, x3 = 0.00357	1.133
x1 = 0.0009897, x3 = 0.007123	1.418
x1 = 0.000999, x3 = 0.005425	1.276
x1 = 0.001114, x3 = 0.003569	1.136
x1 = 0.001117, x3 = 0.001811	1.021
x1 = 0.001181, x3 = 0.005424	1.28
x1 = 0.001198, x3 = 0.007121	1.427
x1 = 0.00132, x3 = 0.001811	1.023
x1 = 0.001321, x3 = 0.003568	1.143
x1 = 0.00137, x3 = 0.005423	1.286
x1 = 0.001406, x3 = 0.00712	1.433
x1 = 0.00149, x3 = 0.00181	1.03
x1 = 0.001525, x3 = 0.003568	1.149
x1 = 0.001559, x3 = 0.005422	1.292
x1 = 0.001622, x3 = 0.007118	1.441
x1 = 0.001679, x3 = 0.00181	1.037
x1 = 0.001728, x3 = 0.003567	1.158
x1 = 0.001768, x3 = 0.005421	1.3
x1 = 0.001812, x3 = 0.007117	1.449

O=S(=O)([N-]S(=O)(=O)C(F)(F)F)C(F)(F)F.[Cs+] + O=S(=O)([N-]S(=O)(=O)C(F)(F)F)C(F)(F)F.[Li+]
100 kPa, frequency 1 MHz, x2 = 0.07
Settings	electrical conductivity [S/m]
403.1 K	0.673
413.1 K	0.898
423.5 K	1.16
432.7 K	1.44
442.1 K	1.77
452.2 K	2.12
462.6 K	2.52
473.6 K	2.94
482.8 K	3.37
492 K	3.86
502.1 K	4.33
512.5 K	4.85
523.1 K	5.37
531.3 K	5.9
542.9 K	6.41
551.8 K	7
560.9 K	7.52
571.1 K	8.14

100 kPa, x2 = 0.07
Settings	viscosity [mPa·s]
403.2 K	97
413.2 K	69.8
423.7 K	51.5
432.9 K	39.2
442.5 K	27.9
452.5 K	23
463 K	18.9
473.9 K	15.8
483.1 K	13.1
492.6 K	11.1
502.5 K	9.71
512.8 K	8.54
523.6 K	7.41
531.9 K	6.64
543.5 K	6.03
552.5 K	5.39
561.8 K	5.01

CCCCCCCCCC[n+]1ccn(C)c1.[Cl-] + OC[C@H]1O[C@@](CO)(O[C@H]2O[C@H](CO)[C@@H](O)[C@H](O)[C@H]2O)[C@@H](O)[C@@H]1O + O
298.15 K, 101.3 kPa
Settings	electrical conductivity [S/m]
x2 = 0, x1 = 6.46e-06	0.00385
x2 = 0, x1 = 9.55e-06	0.00548
x2 = 0, x1 = 1.262e-05	0.00708
x2 = 0, x1 = 1.582e-05	0.00872
x2 = 0, x1 = 1.894e-05	0.0103
x2 = 0, x1 = 2.2e-05	0.0118
x2 = 0, x1 = 2.507e-05	0.01334
x2 = 0, x1 = 2.8e-05	0.0148
x2 = 0, x1 = 3.092e-05	0.0162
x2 = 0, x1 = 3.384e-05	0.0176
x2 = 0.003591, x1 = 7.14e-06	0.00361
x2 = 0.003591, x1 = 1.162e-05	0.00554
x2 = 0.003591, x1 = 1.987e-05	0.00901
x2 = 0.003591, x1 = 2.367e-05	0.0106
x2 = 0.003591, x1 = 2.764e-05	0.01214
x2 = 0.003591, x1 = 3.131e-05	0.0136
x2 = 0.003591, x1 = 3.559e-05	0.01531
x2 = 0.003591, x1 = 3.942e-05	0.0168
x2 = 0.003591, x1 = 4.357e-05	0.0184
x2 = 0.007156, x1 = 4.94e-06	0.00234
x2 = 0.007156, x1 = 9.37e-06	0.0041
x2 = 0.007156, x1 = 1.394e-05	0.00589
x2 = 0.007156, x1 = 1.816e-05	0.00752
x2 = 0.007156, x1 = 2.215e-05	0.00905
x2 = 0.007156, x1 = 2.62e-05	0.0106
x2 = 0.007156, x1 = 3.004e-05	0.01205
x2 = 0.007156, x1 = 3.378e-05	0.0135
x2 = 0.007156, x1 = 3.734e-05	0.0148
x2 = 0.007156, x1 = 4.078e-05	0.01606
x2 = 0.0107, x1 = 8.82e-06	0.00336
x2 = 0.0107, x1 = 1.279e-05	0.00469
x2 = 0.0107, x1 = 1.666e-05	0.00596
x2 = 0.0107, x1 = 2.02e-05	0.00712
x2 = 0.0107, x1 = 2.387e-05	0.00828
x2 = 0.0107, x1 = 2.723e-05	0.00939
x2 = 0.0107, x1 = 3.056e-05	0.0105
x2 = 0.0107, x1 = 3.344e-05	0.01139
x2 = 0.0107, x1 = 3.674e-05	0.0124
x2 = 0.0107, x1 = 3.975e-05	0.0134
x2 = 0.01421, x1 = 8.46e-06	0.00279
x2 = 0.01421, x1 = 1.229e-05	0.00388
x2 = 0.01421, x1 = 1.596e-05	0.00491
x2 = 0.01421, x1 = 1.986e-05	0.00599
x2 = 0.01421, x1 = 2.304e-05	0.00688
x2 = 0.01421, x1 = 2.641e-05	0.0078
x2 = 0.01421, x1 = 2.985e-05	0.00874
x2 = 0.01421, x1 = 3.276e-05	0.00953
x2 = 0.01421, x1 = 3.602e-05	0.01042
x2 = 0.01421, x1 = 3.892e-05	0.01121
x2 = 0.0177, x1 = 1.052e-05	0.00291
x2 = 0.0177, x1 = 1.539e-05	0.00407
x2 = 0.0177, x1 = 2e-05	0.00515
x2 = 0.0177, x1 = 2.419e-05	0.00614
x2 = 0.0177, x1 = 2.851e-05	0.00714
x2 = 0.0177, x1 = 3.269e-05	0.0081
x2 = 0.0177, x1 = 3.635e-05	0.00895
x2 = 0.0177, x1 = 4.032e-05	0.00985
x2 = 0.0177, x1 = 4.414e-05	0.0107

CCn1cc[nH+]c1.O=S(=O)([N-]S(=O)(=O)C(F)(F)F)C(F)(F)F + c1c[nH]cn1
Settings	electrical conductivity [S/m]
303.15 K, 100 kPa, x1 = 0.948	0.427
